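GI50 = concentration required for 50% inhibition of growth. Definition used: TGI = concentration required for complete inhibition of growth.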
Assays:
Assay in all cases: inhibition of tumour cell growth, NCI panel, 384-well format
M14 melanoma = tested on: M14 melanoma
SN12C renal = tested on: SN12C renal
NCI-H460 NSCLC = tested on: NCI-H460 NSCLC
SNB-75 CNS = tested on: SNB-75 CNS
OVCAR-3 ovarian = tested on: OVCAR-3 ovarian
HT29 colon = tested on: HT29 colon
TK-10 renal = tested on: TK-10 renal
NCI-H322M lung = tested on: NCI-H322M lung
SK-MEL-2 melanoma = tested on: SK-MEL-2 melanoma
MDA-MB-468 breast = tested on: MDA-MB-468 breast
MCF7 breast = tested on: MCF7 breast
UACC-257 melanoma = tested on: UACC-257 melanoma
SK-OV-3 ovarian = tested on: SK-OV-3 ovarian
OVCAR-8 ovarian = tested on: OVCAR-8 ovarian
NCI-H522 lung = tested on: NCI-H522 lung
A549 NSCLC = tested on: A549 NSCLC
HL-60(TB) leukemia = tested on: HL-60(TB) leukemia
HCT-15 colon = tested on: HCT-15 colon
SW-620 colon = tested on: SW-620 colon
COLO 205 colon = tested on: COLO 205 colon
HCC-2998 colon = tested on: HCC-2998 colon
HOP-62 NSCLC = tested on: HOP-62 NSCLC
SNB-19 CNS = tested on: SNB-19 CNS
OVCAR-5 ovarian = tested on: OVCAR-5 ovarian
786-0 renal = tested on: 786-0 renal
NCI/ADR-RES ovarian = tested on: NCI/ADR-RES ovarian
PC-3 prostate = tested on: PC-3 prostate
BT-549 breast = tested on: BT-549 breast
SK-MEL-28 melanoma = tested on: SK-MEL-28 melanoma
UO-31 renal = tested on: UO-31 renal
MDA-MB-231 breast = tested on: MDA-MB-231 breast
IGROV1 ovarian = tested on: IGROV1 ovarian
NCI-H226 lung = tested on: NCI-H226 lung
RXF 393 renal = tested on: RXF 393 renal
CAKI-1 renal = tested on: CAKI-1 renal
EKVX NSCLC = tested on: EKVX NSCLC
SF-295 CNS = tested on: SF-295 CNS
LOX IMVI melanoma = tested on: LOX IMVI melanoma
HS 578T breast = tested on: HS 578T breast
U251 glioblastoma = tested on: U251 glioblastoma
MDA-MB-435 melanoma = tested on: MDA-MB-435 melanoma
ACHN renal = tested on: ACHN renal
K-562 leukemia = tested on: K-562 leukemia
KM12 colon = tested on: KM12 colon
UACC-62 melanoma = tested on: UACC-62 melanoma
MALME-3M melanoma = tested on: MALME-3M melanoma
OVCAR-4 ovarian = tested on: OVCAR-4 ovarian
RPMI-8226 leukemia = tested on: RPMI-8226 leukemia
CCRF-CEM leukemia = tested on: CCRF-CEM leukemia
HOP-92 NSCLC = tested on: HOP-92 NSCLC
MOLT-4 leukemia = tested on: MOLT-4 leukemia
DU-145 prostate = tested on: DU-145 prostate
A498 renal = tested on: A498 renal
SF-268 CNS = tested on: SF-268 CNS
T-47D breast = tested on: T-47D breast
HCT-116 colon = tested on: HCT-116 colon
SK-MEL-5 melanoma = tested on: SK-MEL-5 melanoma
SF-539 CNS = tested on: SF-539 CNS
NCI-H23 lung = tested on: NCI-H23 lung

## Cn1cc(-c2ccc(=O)n(Cc3cccc(-c4ncc(OCCN5CCOCC5)cn4)c3)n2)cn1
M14 melanoma
  GI50: > 100 µM
  TGI: > 100 µM
SN12C renal
  GI50: > 100 µM
  TGI: > 100 µM
NCI-H460 NSCLC
  GI50: 72 µM
  TGI: > 100 µM
SNB-75 CNS
  GI50: 98.9 µM
  TGI: > 100 µM
OVCAR-3 ovarian
  GI50: > 100 µM
  TGI: > 100 µM
HT29 colon
  GI50: > 100 µM
  TGI: > 100 µM
TK-10 renal
  GI50: > 100 µM
  TGI: > 100 µM
NCI-H322M lung
  GI50: > 100 µM
  TGI: > 100 µM
SK-MEL-2 melanoma
  GI50: > 100 µM
  TGI: > 100 µM
MDA-MB-468 breast
  GI50: 17.7 µM
  TGI: 54.6 µM
MCF7 breast
  GI50: 48.6 µM
  TGI: > 100 µM
UACC-257 melanoma
  GI50: 55.5 µM
  TGI: > 100 µM
SK-OV-3 ovarian
  GI50: > 100 µM
  TGI: > 100 µM
OVCAR-8 ovarian
  GI50: 61.8 µM
  TGI: > 100 µM
NCI-H522 lung
  GI50: 62.6 µM
  TGI: > 100 µM
A549 NSCLC
  GI50: > 100 µM
  TGI: > 100 µM
HL-60(TB) leukemia
  GI50: 35.8 µM
  TGI: 94.6 µM
HCT-15 colon
  GI50: > 100 µM
  TGI: > 100 µM
SW-620 colon
  GI50: > 100 µM
  TGI: > 100 µM
COLO 205 colon
  GI50: > 100 µM
  TGI: > 100 µM
HCC-2998 colon
  GI50: > 100 µM
  TGI: > 100 µM
HOP-62 NSCLC
  GI50: 23.7 µM
  TGI: 98.6 µM
SNB-19 CNS
  GI50: > 100 µM
  TGI: > 100 µM
OVCAR-5 ovarian
  GI50: > 100 µM
  TGI: > 100 µM
786-0 renal
  GI50: > 100 µM
  TGI: > 100 µM
NCI/ADR-RES ovarian
  GI50: 32.9 µM
  TGI: > 100 µM
PC-3 prostate
  GI50: 67.8 µM
  TGI: > 100 µM
BT-549 breast
  GI50: 33.8 µM
  TGI: > 100 µM
SK-MEL-28 melanoma
  GI50: > 100 µM
  TGI: > 100 µM
UO-31 renal
  GI50: > 100 µM
  TGI: > 100 µM
MDA-MB-231 breast
  GI50: > 100 µM
  TGI: > 100 µM
IGROV1 ovarian
  GI50: > 100 µM
  TGI: > 100 µM
NCI-H226 lung
  GI50: 28.9 µM
  TGI: > 100 µM
RXF 393 renal
  GI50: 56.6 µM
  TGI: > 100 µM
CAKI-1 renal
  GI50: 82.5 µM
  TGI: > 100 µM
EKVX NSCLC
  GI50: 39.5 µM
  TGI: > 100 µM
SF-295 CNS
  GI50: 71.2 µM
  TGI: > 100 µM
LOX IMVI melanoma
  GI50: 37.6 µM
  TGI: > 100 µM
HS 578T breast
  GI50: 97.8 µM
  TGI: > 100 µM
U251 glioblastoma
  GI50: 64.2 µM
  TGI: > 100 µM
MDA-MB-435 melanoma
  GI50: > 100 µM
  TGI: > 100 µM
ACHN renal
  GI50: > 100 µM
  TGI: > 100 µM
K-562 leukemia
  GI50: 35.1 µM
  TGI: > 100 µM
KM12 colon
  GI50: 66.1 µM
  TGI: > 100 µM
UACC-62 melanoma
  GI50: > 100 µM
  TGI: > 100 µM
MALME-3M melanoma
  GI50: > 100 µM
  TGI: > 100 µM
OVCAR-4 ovarian
  GI50: 78.3 µM
  TGI: > 100 µM
RPMI-8226 leukemia
  GI50: 24.9 µM
  TGI: > 100 µM
CCRF-CEM leukemia
  GI50: 21.6 µM
  TGI: 57.4 µM
HOP-92 NSCLC
  GI50: > 100 µM
  TGI: > 100 µM
MOLT-4 leukemia
  GI50: 18.6 µM
  TGI: 37.1 µM
DU-145 prostate
  GI50: > 100 µM
  TGI: > 100 µM
A498 renal
  GI50: > 100 µM
  TGI: > 100 µM
SF-268 CNS
  GI50: > 100 µM
  TGI: > 100 µM
T-47D breast
  GI50: 18.3 µM
  TGI: 72.2 µM
HCT-116 colon
  GI50: 75.5 µM
  TGI: > 100 µM
SK-MEL-5 melanoma
  GI50: 16.5 µM
  TGI: 36.8 µM
SF-539 CNS
  GI50: > 100 µM
  TGI: > 100 µM
NCI-H23 lung
  GI50: 14.5 µM
  TGI: > 100 µM

— PubChem BioAssay (NCI)
